The values that follow come from PMC12362582, “Linker Methylation as a Strategy to Enhance PROTAC Oral Bioavailability: Insights from Molecular Properties and Conformational Analysis” (Journal of Medicinal Chemistry, 2025).

Structures are written as SMILES. Read-outs that look alike come from different tables or passages of the source. A value given as a limit tells only on which side of the number the result lay.

Series [1] can be described thus: Bidirectional Caco-2 permeability and efflux ratio assay. Type of series: in vitro ADME. As to conditions: human.
The nature of series [2]: Chamelogk chromatographic chameleonicity (PLRP-S column). Format: physicochemical. As to conditions: Exp. log k'100 – Ext. log k'100, PLRP-S column. The text has this: (§1) Chameleonicity was monitored by Chamelogk, a recent chromatographic descriptor able to capture environment-dependent conformational changes by monitoring different mobile phase compositions on the PLRP-S column. All PROTACs behave as strong chameleons (Chamelogk > 0.6). Additionally, we calculated the EPSA-to-TPSA ratio (ETR), a recently proposed index for polarity masking. The ETR values remained consistently around 0.7 across the series, supporting the notion that conformational effects contribute uniformly to the polarity profiles of the analyzed PROTACs.
Using the PLRP-S column, we assessed the RT of each PROTAC in the data set at four different mobile phase conditions (50, 60, 70 and 100% MeCN) and calculated the capacity factor at each mobile phase composition. First, we constructed a linear trend using the first three mobile phase conditions (50, 60, and 70% MeCN) that respected a linear behavior and calculated the extrapolated value at 100% MeCN (Ext. log k′100). Chamelogk was then calculated with the following equation: Chamelogk = Exp. log k′100 – Ext. log k′100.

Series [3] in a line: log kW IAM (IAM.PC.DD2 column) and derived Δlog kW IAM polarity. Format: physicochemical. As to conditions: for log kW^IAM: IAM.PC.DD2 column, extrapolated, pH 7; for Δlog kW^IAM: log kW IAM – clog kW IAM (clog = 0.92*BRlogD – 1.03). As for the experimental part: (§2) Lipophilicity was assessed using three chromatographic descriptors, each simulating distinct aspects of membrane environments. BRlogD is a surrogate of the octanol/water distribution coefficient (log D oct) reflecting a general partitioning across biological membranes. Log k W ^IAM implements an Immobilized Artificial Membrane (IAM) column which provides a lipophilicity index in an environment resembling the membrane phospholipids. Finally, log k′80 PLRP-S reflects retention in a hydrophobic polymeric column environment, mimicking the nonpolar core of lipid bilayers, and acts as a surrogate for the toluene/water partition coefficient (log D tol). Lipophilicity remained within a moderate range across all systems.
(§3) Polarity was quantified by Δlog k W ^IAM, a descriptor obtained from the experimental log k W ^IAM and BRlogD. In addition, we also measured EPSA (Table S2), another polarity descriptor based on a supercritical fluid chromatographic (SFC) system widely used in drug discovery.
(§4) All chromatographic measurements were performed using the Thermo Scientific Inc. HPLC DIONEX Ultimate 3000 connected to an RS diode array and the Chromeleon 7.2.10 software (www.thermofisher.com). 1.5 mL HPLC vials, 9 mm PP screw caps, and high-performance ergonomic single-channel variable volume pipettors from VWR Signature were used. A Eutech pH Meter 2700 was used to regulate the pH of each buffer and sample (www.fishersci.com). For all the chromatographic descriptors, the mobile phase consisted of an acetonitrile solution (ACN) and 20 mM AAB, pH 7. Moreover, 10 μL was set as the volume of injection of compound concentrations ranging from 50 to 100 μg/mL in ACN/buffer mixtures. One mL/min was chosen as the isocratic flow rate and 30 °C as the oven temperature. However, each chromatographic system (RP) had its own conditions:
This descriptor required the use of an IAM.PC.DD2 (300 Å, 10 μm, 10 cm × 4.6 mm) column from REGIS. The organic solvent of the eluent, ACN, was modified at various percentages (from 10 to 50%, v/v) and the retention times were measured. Next, the capacity factor (log k′) values were calculated as described elsewhere and the equation represented by the five was obtained. Lastly the extrapolated value at 100% ACN (0% aqueous buffer) or log k w ^IAM was obtained. Caffeine, carbamazepine, ketoprofen, theobromine, and toluene were checked daily as gold standards. ,
This polarity descriptor was calculated using the equation Δlog k w ^IAM = log k w ^IAM – clog k w ^IAM. Clog k w ^IAM, defined as the log k w ^IAM for neutral compounds with PSA = 0, has been correlated to BRlogD by our group with the equation: clog k w ^IAM= 0.92*BRlogD – 1.03.

Series [4] is described as follows: EPSA (supercritical fluid chromatography) and EPSA-to-TPSA ratio. Format: physicochemical. As to conditions: for EPSA: supercritical fluid chromatographic (SFC) system, SFC-based polarity descriptor.
Text: as §3, §1

The nature of series [5]: BRlogD chromatographic lipophilicity (XBridge Shield RP18). Type of series: physicochemical. As to conditions: XBridge Shield RP18 HPLC column (130 Å, 5 µm, 5 cm × 4.6 mm); 60% ACN / 40% 20 mM ammonium acetate, pH 7. As for the experimental part:
as §2, §4
BRlogD as an analog of log Poct required the use of the XBridge Shield RP18 (130 Å, 5 μm, 5 cm × 4.6 mm) column by Waters (www.waters.com). The eluent was composed of a 60% ACN and 40% 20 mM ammonium acetate buffer (v/v) mixture. The retention time was measured for the analyte and the log k′60 was calculated (capacity factor k′60 = [t R (60% ACN) – t 0]/t 0) and then converted to the corresponding BRlogD value using the equation BRlogD = 3.31x + 2.79. In addition, acetone, caffeine, ibuprofen, lidocaine, phenol, and a mixture of uracile, acetophenone, and toluene were used as gold standards.

The mark [6] stands for this setting: with Zosuquidar (P-gp inhibitor), concentration not given, Caco-2, in the presence of a Pgp inhibitor (Zosuquidar), read-out: ER (+Pgp inhibitor).
Setting [7] is: Caco-2, in the absence of an inhibitor, read-out: ER (Caco-2 efflux ratio).

Take `Cc1ncsc1-c1ccc([C@H](CCCN2CCC(c3ccc4c(c3)n(C3CCCC3)c3nc(=O)c5c(Br)cccc5n43)CC2)NC(=O)[C@@H]2C[C@@H](O)CN2C(=O)[C@@H](NC(=O)C2(F)CC2)C(C)(C)C)cc1` [A3-1]: in series [1] (setting [6]), the efflux ratio at 1 μM worked out at 1.8. In series [2], this compound showed a Chamelogk of over 2. Besides, in series [3], the “log kW^IAM” value is given as 2.01 and the “Δlog kW^IAM” value was determined as 0.93. In addition, the EPSA in series [4] amounted to 133 A^2. Moreover, the chromatographic logD (usually a lipophilicity value derived from retention on a column) in series [5] was found to be 2.29.

Regarding `Cc1ncsc1-c1ccc([C@H](C[C@H](C)CN2CCC(c3ccc4c(c3)n(C3CCCC3)c3nc(=O)c5c(Br)cccc5n43)CC2)NC(=O)[C@@H]2C[C@@H](O)CN2C(=O)[C@@H](NC(=O)C2(F)CC2)C(C)(C)C)cc1` [A3-2], in series [1] (setting [6]), the efflux ratio at 1 μM is 0.9. Moreover, the efflux ratio at 1 μM in series [1] (setting [7]) was determined as 9. In series [2], this compound had a Chamelogk of over 2. Also, in series [3], the “log kW^IAM” value is listed as 2.21 and the “Δlog kW^IAM” value is recorded as 0.21. Moreover, in series [4], the “ETR (EPSA-to-TPSA ratio)” value is 0.68 and the EPSA amounted to 130 A^2. In series [5], this compound yielded a chromatographic logD of 3.29.

For the compound `Cc1ncsc1-c1ccc([C@H](C[C@@H](C)CN2CCC(c3ccc4c(c3)n(C3CCCC3)c3nc(=O)c5c(Br)cccc5n43)CC2)NC(=O)[C@@H]2C[C@@H](O)CN2C(=O)[C@@H](NC(=O)C2(F)CC2)C(C)(C)C)cc1` [A3-3], the efflux ratio at 1 μM in series [1] (setting [6]) came out at 0.4. The efflux ratio at 1 μM in series [1] (setting [7]) was found to be 5.1. The compound also yielded a Chamelogk in series [2] of over 2. In series [3], the “log kW^IAM” value is on record as 2.29 and the “Δlog kW^IAM” value stood at 0.26. In series [4], the “ETR (EPSA-to-TPSA ratio)” value amounted to 0.70 and the EPSA stood at 130 A^2. This compound registered a chromatographic logD in series [5] of 3.32.

Take `Cc1ncsc1-c1ccc([C@H](CCCCCN2CCC(c3ccc4c(c3)n(C3CCCC3)c3nc(=O)c5c(Br)cccc5n43)CC2)NC(=O)[C@@H]2C[C@@H](O)CN2C(=O)[C@@H](NC(=O)C2(F)CC2)C(C)(C)C)cc1` [A5-1]: the efflux ratio at 1 μM in series [1] (setting [6]) worked out at 1.6. In addition, in series [1] (setting [7]), the efflux ratio at 1 μM was 24.2. The Chamelogk in series [2] is recorded as over 2. For the same compound, in series [3], the “log kW^IAM” value is 3.00 and the “Δlog kW^IAM” value was determined as 1.77. Moreover, in series [3] (listed as A5–1), the “Δlog kW^IAM” value was over 1.5. In addition, in series [4], the “ETR (EPSA-to-TPSA ratio)” value amounted to 0.75 and the EPSA was determined as 136 A^2. The chromatographic logD in series [5] is 2.46.

Take `Cc1ncsc1-c1ccc([C@H](CC[C@H](C)CCN2CCC(c3ccc4c(c3)n(C3CCCC3)c3nc(=O)c5c(Br)cccc5n43)CC2)NC(=O)[C@@H]2C[C@@H](O)CN2C(=O)[C@@H](NC(=O)C2(F)CC2)C(C)(C)C)cc1` [A5-2]: in series [1] (setting [6]), the efflux ratio at 1 μM turned out to be 1.6. The efflux ratio at 1 μM in series [1] (setting [7]) was found to be 7.5. For the same compound, in series [2], the Chamelogk was over 2. Also, in series [3], the “log kW^IAM” value is recorded as 2.37 and the “Δlog kW^IAM” value is recorded as 0.85. Further, in series [4], the “ETR (EPSA-to-TPSA ratio)” value was determined as 0.73 and the EPSA turned out to be 133 A^2. For the same compound, the chromatographic logD in series [5] is 2.76.

`Cc1ncsc1-c1ccc([C@H](CC[C@@H](C)CCN2CCC(c3ccc4c(c3)n(C3CCCC3)c3nc(=O)c5c(Br)cccc5n43)CC2)NC(=O)[C@@H]2C[C@@H](O)CN2C(=O)[C@@H](NC(=O)C2(F)CC2)C(C)(C)C)cc1` [A5-3]: in series [1] (setting [6]), the efflux ratio at 1 μM was 1. Moreover, in series [1] (setting [7]), the efflux ratio at 1 μM is 3.3. In series [2], this compound displayed a Chamelogk of over 2. In series [3], the “log kW^IAM” value is reported as 2.38 and the “Δlog kW^IAM” value came out at 0.83. Besides, in series [4], the “ETR (EPSA-to-TPSA ratio)” value is recorded as 0.73 and the EPSA was 133 A^2. The same compound had a chromatographic logD in series [5] of 2.8.

Regarding `Cc1ncsc1-c1ccc([C@@H](CC[C@@H](C)CCN2CCC(c3ccc4c(c3)n(C3CCCC3)c3nc(=O)c5c(Br)cccc5n43)CC2)NC(=O)[C@@H]2C[C@@H](O)CN2C(=O)[C@@H](NC(=O)C2(F)CC2)C(C)(C)C)cc1` [A5-4], the efflux ratio at 1 μM in series [1] (setting [6]) was 0.9. Further, the Chamelogk in series [2] is recorded as over 2. In series [3], the “log kW^IAM” value is on record as 3.31 and the “Δlog kW^IAM” value is listed as 1.8. Besides, the “Δlog kW^IAM” value in series [3] (listed as A5–4) was over 1.5. In series [4], the “ETR (EPSA-to-TPSA ratio)” value came to 0.73 and the EPSA was determined as 134 A^2. Moreover, in series [5], the chromatographic logD stood at 2.76.

In the case of `Cc1ncsc1-c1ccc([C@H](COCCN2CCC(c3ccc4c(c3)n(C3CCCC3)c3nc(=O)c5c(Br)cccc5n43)CC2)NC(=O)[C@@H]2C[C@@H](O)CN2C(=O)[C@@H](NC(=O)C2(F)CC2)C(C)(C)C)cc1` [B-1], the efflux ratio at 1 μM in series [1] (setting [6]) was found to be 3. Further, in series [2], the Chamelogk is listed as over 2. In series [3], the “log kW^IAM” value is 1.97 and the “Δlog kW^IAM” value is given as 0.61. In series [4], the “ETR (EPSA-to-TPSA ratio)” value was 0.69 and the EPSA stood at 128 A^2. In series [5], this compound returned a chromatographic logD of 2.64.

As to `Cc1ncsc1-c1ccc([C@H](CO[C@H](C)CN2CCC(c3ccc4c(c3)n(C3CCCC3)c3nc(=O)c5c(Br)cccc5n43)CC2)NC(=O)[C@@H]2C[C@@H](O)CN2C(=O)[C@@H](NC(=O)C2(F)CC2)C(C)(C)C)cc1` [B-2], in series [1] (setting [6]), the efflux ratio at 1 μM was found to be 1.8. The Chamelogk in series [2] is over 2. Moreover, in series [3], the “log kW^IAM” value was 1.92 and the “Δlog kW^IAM” value came to 0.57. In series [4], the “ETR (EPSA-to-TPSA ratio)” value was determined as 0.68. Further, in series [5], the chromatographic logD was 2.64.

Take `Cc1ncsc1-c1ccc([C@H](CO[C@@H](C)CN2CCC(c3ccc4c(c3)n(C3CCCC3)c3nc(=O)c5c(Br)cccc5n43)CC2)NC(=O)[C@@H]2C[C@@H](O)CN2C(=O)[C@@H](NC(=O)C2(F)CC2)C(C)(C)C)cc1` [B-3]: the efflux ratio at 1 μM in series [1] (setting [6]) turned out to be 2.2. In addition, the efflux ratio at 1 μM in series [1] (setting [7]) came to 23.9. In addition, in series [2], the Chamelogk is over 2. Besides, in series [3], the “log kW^IAM” value is on record as 2.06 and the “Δlog kW^IAM” value is reported as 0.58. In addition, in series [4], the “ETR (EPSA-to-TPSA ratio)” value came out at 0.68 and the EPSA was 124 A^2. In addition, the chromatographic logD in series [5] is 2.58.

Turning to `Cc1ncsc1-c1ccc([C@H](COC(C)(C)CN2CCC(c3ccc4c(c3)n(C3CCCC3)c3nc(=O)c5c(Br)cccc5n43)CC2)NC(=O)[C@@H]2C[C@@H](O)CN2C(=O)[C@@H](NC(=O)C2(F)CC2)C(C)(C)C)cc1` [B-4], the efflux ratio at 1 μM in series [1] (setting [6]) was determined as 1.1; in series [1] (setting [7]), 31.3. In series [2], the Chamelogk is over 2. In addition, in series [3], the “log kW^IAM” value was 2.00. Moreover, the “ETR (EPSA-to-TPSA ratio)” value in series [4] is on record as 0.67. In addition, in series [4], the EPSA amounted to 127 A^2. In series [5], this compound registered a chromatographic logD of 3.25.
